Reference: US20230263822A1, “MODULATION OF FACTOR 11 EXPRESSION” (Ionis Pharmaceuticals, Inc., priority 2008, published 2023)
pIC50: −log10 of the molar value.

Key:
human Factor 11 mRNA [1] = assay: Dose-dependent inhibition of human Factor 11 in HepG2 cells, lipofectin 2.34-75 nM (Example 5); format: cell-based; conditions: for percent inhibition of human Factor 11 mRNA relative to untreated control cells: ~16 hours
Experimental: (§1) Cells were plated at a density of 10,000 cells per well and transfected using lipofectin reagent with 2.34 nM, 4.69 nM, 9.375 nM, 18.75 nM, 37.5 nM, and 75 nM concentrations of antisense oligonucleotide, as specified in Table 11. After a treatment period of approximately 16 hours, RNA was isolated from the cells and human Factor 11 mRNA levels were measured by quantitative real-time PCR. Human Factor 11 primer probe set RTS 2966 was used to measure mRNA levels. Factor 11 mRNA levels were adjusted according to total RNA content, as measured by RIBOGREEN. Results are presented as percent inhibition of human Factor 11, relative to untreated control cells.

human Factor 11 mRNA [2] = assay: Antisense inhibition of human Factor 11 in HepG2 cells by microwalk gapmers, lipofectin, 75 nM (Example 3); format: cell-based; conditions: HepG2 cells, lipofectin, gapmers targeted to nucleobases 1275 to 1318 of SEQ ID NO: 1
How it was run: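 HepG2 cells (10,000/well) were transfected via lipofectin with 75 nM 20-mer MOE gapmers (phosphorothioate, 5-methyl-C) for about 24 h. Factor 11 mRNA was measured by qRT-PCR, normalized to RIBOGREEN total RNA, and given as percent inhibition versus untreated cells.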

human Factor 11 mRNA [3] = assay: Dose-dependent inhibition of human Factor 11 in HepB3 cells, lipofectin (Example 7); format: cell-based; conditions: for percent inhibition of Factor 11 mRNA relative to untreated control cells: ~16 hours
Experimental: as §1, with “4,000” for “10,000”, “2.3” for “2.34”, “4.7” for “4.69”, “9.4” for “9.375”, “14.” for “11.”, “of” for “of human”

[4] = parameters: species or system Sprague-Dawley rats; conditions: rat, in vivo
Experimental: Three days after the last dose, the rats were sacrificed and livers and kidneys were collected for analysis.
The concentration of the full-length oligonucleotide as well as the total oligonucleotide concentration (including the degraded form) was measured. The method used is a modification of previously published methods (Leeds et al., 1996; Geary et al., 1999) which consist of a phenol-chloroform (liquid-liquid) extraction followed by a solid phase extraction. An internal standard (ISIS 355868, a 27-mer 2′-O-methoxyethyl modified phosphorothioate oligonucleotide, […], designated herein as SEQ ID NO: 270) was added prior to extraction. […] The results are presented in Tables 77 and 78, expressed as μg/g liver or kidney tissue. Half-lives were then calculated using WinNonlin software ([…]).

[5] = Viscosity of ISIS antisense oligonucleotides, micro-viscometer at 25 °C (Example 47); format: physicochemical; conditions: for Concentration: concentration of the viscosity sample, UV reading at 260 nM at 85° C.; for Viscosity: in water, micro-viscometer at 25° C., at the concentration of the same line
How it was run: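 Oligonucleotide (32-35 mg) was dissolved in 120 μL water by heating at 50° C, and viscosity was measured by micro-viscometer at 25° C. Concentration was checked by UV at 260 nm at 85° C on a dilution in water. Screening cut-off: >40 cP at 165-185 mg/mL.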

Row | Substance | pIC50 (human Factor 11 mRNA [1]) | percent inhibition of human Factor 11 mRNA relative to untreated control cells (human Factor 11 mRNA [1]; 2.34 nM) | percent inhibition of human Factor 11 mRNA relative to untreated control cells (human Factor 11 mRNA [1]; 4.69 nM) | percent inhibition of human Factor 11 mRNA relative to untreated control cells (human Factor 11 mRNA [1]; 9.375 nM) | percent inhibition of human Factor 11 mRNA relative to untreated control cells (human Factor 11 mRNA [1]; 18.75 nM) | percent inhibition of human Factor 11 mRNA relative to untreated control cells (human Factor 11 mRNA [1]; 37.5 nM) | percent inhibition of human Factor 11 mRNA relative to untreated control cells (human Factor 11 mRNA [1]; 75 nM) | % inhibition (human Factor 11 mRNA [2]) | pIC50 (human Factor 11 mRNA [3]) | percent inhibition of Factor 11 mRNA relative to untreated control cells (human Factor 11 mRNA [3]; 2.3 nM) | percent inhibition of Factor 11 mRNA relative to untreated control cells (human Factor 11 mRNA [3]; 4.7 nM) | percent inhibition of Factor 11 mRNA relative to untreated control cells (human Factor 11 mRNA [3]; 9.4 nM) | percent inhibition of Factor 11 mRNA relative to untreated control cells (human Factor 11 mRNA [3]; 18.75 nM) | percent inhibition of Factor 11 mRNA relative to untreated control cells (human Factor 11 mRNA [3]; 37.5 nM) | percent inhibition of Factor 11 mRNA relative to untreated control cells (human Factor 11 mRNA [3]; 75 nM) | Half-life in the liver and kidney [4] | Concentration [5] | Viscosity [5]
1 | 416858 (antisense ACGGCATTGGTGCACAGTTT; 5-10-5 gapmer, further chemistry not given here) [compound 416858] | 7.96 | 11% | 35% | 46% | 61% | 75% | 77% | 93% | 7.92 | 17% | 34% | 43% | 57% | 74% | 62% | 26 days | 166 mg/mL | 10 cP
2 | 416850 (antisense TGCACAGTTTCTGGCAGGCC; 5-10-5 gapmer, further chemistry not given here) [compound 416850] | 7.89 | 24% | 31% | 49% | 55% | 70% | 77% | 93% | 7.89 | 22% | 32% | 43% | 56% | 75% | 60% | 18 days | 152 mg/mL | 67 cP
